This experiment concerns HT-29 cells. Description: MTT assay on HT-29 human colon carcinoma cell line. The format is cell-based. To be noted: MTT assay after 5 days, compounds 30 μM to 1.5 nM, read-out: IC90 HT29. The method, then: To show the activity of the compounds according to this invention, their effects on a human colon carcinoma cell line was evaluated using a standard MTT-assay. MTT (3-(4,5-dimethylthiazol-2-yl)-2,5-diphenyl tetrazolium bromide) is widely used for the quantitative determination of cytotoxic effects or in vitro chemosensitivity of tumor cells. The assay is based on the cleavage of the yellow tetrazolium salt (MTT) to purple formazan crystals by metabolic active cells. For details, see Rubinstein, L. V., et al., J. Natl. Cancer Inst. 82 (1990) 1113-1118.
We proceeded as follows: HT-29 cells (human colon carcinoma cell line, ATCC-No. HTB-38) were cultivated in RPMI 1640 medium with GlutaMAX™ I (Invitrogen, Cat-No. 61870-010), 2.5% fetal calf serum (FCS, Sigma Cat-No. F4135 (FBS)), 2 mM glutamine, 100 units/ml penicillin, 100 μg/ml streptomycin (=Pen/Strep from Invitrogen Cat. No. 15140). For the assay the cells were seeded in 384 well plates, 900 cells per well, in the same medium. At the next day, the compounds (dissolved 10 mM in DMSO) were added in various concentrations ranging from 30 μM to 1.5 nM. After 5 days, the MTT assay was done mainly according to the instructions of the manufacturer (Cell proliferation kit I, MTT, from Roche Molecular Biochemicals). […] After careful mixing, the plates were measured in Victor 2 (scanning multiweil spectrophotometer, Wallac) at 550 nm. […]
Background: Formazan colour is commonly taken as a measure of viable cells.

For one molecule, IC90 results are on record in patent publication US7423060B2, “Thiophene hydroxamic acid derivatives and their use as HDAC inhibitors” (Hoffman-La Roche Inc., priority 2004, dated 2008).

As to `CC(NC(=O)c1ccc(C(=O)NO)s1)c1ccc(OCc2ccc(OC(F)(F)F)cc2)cc1` (stereo not shown) [Example 1-1, Thiophene-2,5-dicarboxylic acid 2-hydroxyamide 5-({1-[4-(4-trifluoromethoxy-benzyloxy)-phenyl]-ethyl}-amide)], the IC90 (as a rule, the concentration needed for an effect of 90%) was 690 nM.
